Source: patent US10543160B2, “Cosmetic composition including water soluble scrub particles containing polypeptide and/or cell culture” (PAEAN AESTHETICS INC., priority 2015, dated 2020)

System: 3T3 fibroblasts
Assay: Measurement of EGF activities using 3T3 fibroblasts, corrected to NIBSC EGF standard product
Assay type: cell-based
Conditions: recombinant EGF of purity 90% or more
Experimental: According to an embodiment of the present invention, the EGF may be an EGF which is prepared from a recombinant E. coli or a plant and is purified to a purity of 90% or more.

epidermal growth factor [EGF, peptide of 6,200 Da with 53 amino acid residues, prepared from recombinant E. coli or a plant, purity 90% or more]
EGF activity per mg: one million
